Like-named read-outs stand apart in the source and are kept apart here.
What was measured:
[1] = tested on: tert-butylhydroperoxide-induced lipid peroxidation (t-BuOOH-LP) in rat liver microsomes; assay: Inhibition of tert-butylhydroperoxide-induced lipid peroxidation (t-BuOOH-LP), chemiluminescence; type: biochemical
Description: Inhibition of lipid peroxidation was evaluated on the basis of their potency to inhibit tert-butylhydroperoxide-induced lipid peroxidation (t-BuOOH-LP) in rat liver microsomes in vitro (Ahotupa et al. 1997). The test for the t-BuOOH-LP was carried out as follows: The buffer (50 mM sodium carbonate, pH 10.2, with 0.1 mM EDTA) was pipetted in a volume of 0.8 ml in the luminometer cuvette. Twenty microliters of diluted liver microsomes, final concentration 1.5 mg protein/ml, was added, followed by […] of luminol (0.5 mg/ml) and test chemicals. The test compounds were added to incubation mixtures in a small volume diluted in ethanol or dimethylsulphoxide (2% of incubation volume), and the lipid peroxidation potency was compared to that of the vehicle (ethanol or dimethyl sulphoxide). The reaction was initiated by 0.05 ml of 0.9 mM t-BuOOH at 33° C. Chemiluminescence was measured for about 45 min at 1 min cycles, and the area under curve (integral) was calculated. Chemiluminescence measurements were carried out using a Bio-Orbit 1251 Luminometer (Bio-Orbit, Turku, Finland) connected to a personal computer using dedicated software for the assays.

[2] = tested on: MCF-7 cells; assay: Estrogenic and antiestrogenic activity in MCF-7 cell proliferation assay; type: cell-based, human; design: Estrogenic activity, cell proliferation: dose or concentration left out as unconfirmed; settings: 5 to 7 days, FIG. 2
Description: The MCF-7 cell line (human breast cancer cells) stock cultures were grown in phenol red free RPMI medium supplemented with 5% FCS, 100 U/ml penicillin and 100 μg/ml streptomycin, 10 μg/ml insulin and 1 nM 17β-estradiol in T-75 cell culture bottles. The medium was replaced with fresh ones three times per week. The stock cultures were harvested by trypsinization and suspended in 10 ml phenol red free versene solution and cenitifuged for 5 min 800 rpm. The cell pellet was carefully resuspended into RPMI medium supplemented with 5% dextran charcoal stripped FCS (dcFCS) and seeded on 6 well plates 50 000 cells/3.0 ml medium/well. On the second day of culture the medium was changed and test compounds were added. To test the estrogenicity of the lignan compounds, they were diluted in ethanol and added to cell cultures in final concentration of […]. In each proliferation assay 1.0 nM 17β-estradiol solution in ethanol was used as a positive control for estrogenic response. Equal amounts of ethanol were added to control wells. To test the antiestrogenicity both 17β-estradiol and lignan solutions were added to cell cultures. The cells were cultured for 5 to 7 days in the presence of test compounds, and the medium was changed every second day. Cell proliferation was quantified by counting the released nuclei with Coulter counter.

[3] = tested on: uterine growth of immature rats; assay: Immature rat uterotropic test; type: in vivo; settings: 7 days treatment, FIG. 3
Description: The estrogenicity HMR was evaluated by the uterotropic assay in immature rats which was performed as described earlier (Jordan et al. 1977), with the exception of treatment time which was 7 days instead of 3 days in the reference study. The treatment time was longer because of the expected weak estrogenicity of the test compound. The treatment of immature rats with an aromatase inhibitor (MPV-2213 ad), which prevents biosynthesis of estradiol, was used as a methodological control for non-estrogen-stimulated uterus.

[4] = tested on: intact and hypoandrogenic Noble strain male rats; assay: Estrogenic and antiestrogenic activity in adult male rats (intact and hypoandrogenic); type: in vivo, rat; settings: for Body weight / Coaculating gland relative weight / Seminal vesicle relative weight / Testis relative weight / Ventral Prostate relative weight: HMR 50 mg/kg daily; for Body weight / Coaculating gland relative weight / Seminal vesicle relative weight / Testis relative weight / Ventral Prostate relative weight / Pituitary LH (μg/pit) / Serum LH / Serum testosterone / Testis testosterone (ng/testis): four weeks, mean ± SD; for Pituitary LH (μg/pit) / Serum LH / Serum testosterone / Testis testosterone (ng/testis): 50 mg/kg HMR
Description: Estrogenic (antiandrogenic) and antiestrogenic effects of HMR were studied in intact and hypoandrogenic Noble strain male rats (age 6–9 month), correspondingly. The chronic hypoandrogenic state with both structural and functional changes in the male reproductive tract was induced by neonatal estrogenization (diethylstilbestrol, 10.0 μg/kg body weight in rape oil s.c. on postnatal days 1–5). These changes are known to be partly reversible by aromatase inhibitor treatment consisting daily dose of MPV-2213 ad 10–30 mg/kg body weight (Streng et al. unpublished observations).
Twelve of both intact and hypoandrogenic animals were cavaged in daily dosage of HMR 50 mg/kg body weight in rape oil. Another twelve animals from both animal models were cavaged with rape oil only as a placebo treatment. After four-week treatment the animals were sacrificed. The weights of testis and accessory sex glands (ventral prostate, seminal vesicles and coagulating gland) were measured. Serum and testis testosterone and pituitary and serum luteinizing hormone (LH) levels were measured by immunoassays (Haavisto et al. 1993).

[5] = tested on: DMBA-induced mammary gland tumors; assay: Antitumor activity in rat DMBA-induced mammary cancer model; type: in vivo
Description: Antitumor activity of HMR in rat mammary cancer was studied as described earlier ([…] et al. 1986). Fifty-day-old female Sprague-Dawley rats were given 12.0 mg DMBA (dimethylbentz[a]anthracene) by […]. After approximately 6 weeks palpable tumors could be detected, whereafter the width (w) and the length (1) of the tumors were measured once a week to determine the tumor volumes according to a formula V=(πw^2 l)/12. The rats were also weighed once a week. The rats were allocated in 3 different groups so that the total number of tumors in the beginning of the experiment was similar in each group: (1) Control group 8 animals, (2) HMR 3.0 mg/kg 7 animals, and (3) HMR 15.0 mg/kg 7 animals, one of which had to be killed before the end of the experiment. HMR was given per os starting 9 weeks after the DMBA-induction, i.e. 3 weeks after palpable tumors appeared, and was given daily for 7.5 weeks. At the end of the experiment the tumors were classified in groups according to their growth pattern: 1. Growing tumors (PD=progressive disease); 2. Non-growing, stabilized tumors (SD=stabilized disease, no change in tumor volume or regression less than 75%; 3. Regressing tumors (PR=partial response, regression of tumor volume more than 75%); 4. Disappeared tumors (CR=complete response, no palpable tumor).

[6] = control and hypoandrogenic animals, 4-week treatment, versus placebo

COc1cc(CC2C(=O)OCC2C(O)c2ccc(O)c(OC)c2)ccc1O (stereo not shown) [HMR, hydroxymatairesinol]
IC50 ([1]; Table 3 comparison with known antioxidants, read-out: Inhibition of lipid peroxidation, IC-50): 60 nM | IC50 ([1]; lipid peroxidation inhibition test, rat liver microsomes, Table 2, read-out: Antioxidative capacity (t-BuOOH-LP) IC50): 80 nM | Estrogenic activity, cell proliferation ([2]; MCF-7, lignan alone): very weak, not statistically significant | Antiestrogenic activity, cell proliferation ([2]; MCF-7, lignan together with 17β-estradiol): very weak, not statistically significant | Antiestrogenic effect (reduction of uterine weight gain) [3]: no antiestrogenic effect | Estrogenic effect on uterine weight gain [3]: no significant estrogenic effect | Changes in testosterone or LH concentrations [4, 6]: no significant changes | Changes in the weights of accessory sex glands and testis [4, 6]: no significant changes | Body weight ([4]; hypoandrogenemic (neonatally estrogenized) male rats): 455 ± 36 g | Coaculating gland relative weight ([4]; hypoandrogenemic male rats): 70 ± 30 mg/kg body weight | Seminal vesicle relative weight ([4]; hypoandrogenemic male rats): 266 ± 49 mg/kg body weight | Testis relative weight ([4]; hypoandrogenemic male rats): 3276 ± 327 mg/kg body weight | Ventral Prostate relative weight ([4]; hypoandrogenemic male rats): 378 ± 198 mg/kg body weight | Pituitary LH (μg/pit) ([4]; hypoandrogenic male rats): 7.530 ± 2.286 μg/pit | Serum LH ([4]; hypoandrogenic male rats): 0.854 ± 0.333 ng/mL | Serum testosterone ([4]; hypoandrogenic male rats): 0.939 ± 0.431 ng/mL | Testis testosterone (ng/testis) ([4]; hypoandrogenic male rats): 48.0 ± 15.2 ng/testis | Pituitary LH (μg/pit) ([4]; intact male rats): 6.838 ± 2.061 μg/pit | Serum LH ([4]; intact male rats): 1.088 ± 0.352 ng/mL | Serum testosterone ([4]; intact male rats): 2.770 ± 1.421 ng/mL | Testis testosterone (ng/testis) ([4]; intact male rats): 112.9 ± 58.5 ng/testis | Body weight ([4]; intact male rats): 447 ± 38 g | Coaculating gland relative weight ([4]; intact male rats): 204 ± 48 mg/kg body weight | Seminal vesicle relative weight ([4]; intact male rats): 419 ± 59 mg/kg body weight | Testis relative weight ([4]; intact male rats): 4223 ± 304 mg/kg body weight | Ventral Prostate relative weight ([4]; intact male rats): 938 ± 148 mg/kg body weight | Dose-dependency of antitumor action ([5]; HMR 3.0 versus 15.0 mg/kg): no clear dose-dependency | Antitumor effect (growing versus stable, regressing and disappeared tumors) ([5]; female Sprague-Dawley rats, HMR 3.0 and 15.0 mg/kg per os daily for 7.5 weeks, FIG. 4): statistically very significant

Reference: patent US7005447B2, “Food product comprising hydroxymatairesinol” (Hormos Nutraceutical Oy Ltd., priority 1999, dated 2006)
